Structures can show the parent of a compound that is named as a salt.
Legend:
human c-mpl-Ba/F3 cell = experiment: Mouse oral administration test: blood plasma after oral dosing added to the human c-mpl-Ba/F3 cell proliferation test system; format: in vivo, male ICR mice; conditions: 3 mg/kg orally; for Cell proliferation activity (%): male ICR mice, blood sampled 2 hours after administration, maximum activity of each test compound = 100%; for oral absorption: verbal conclusion from Table 1, mice
Procedure: Test Example 2: Mouse Oral Administration Test 3 mg/kg of the test compound suspended in an aqueous solution of 0.5% methylcellulose was orally administered to male ICR mice. […] Table 1 Human c-mpl-Ba/F3 cell proliferation activity of […] after orally administering test compounds

[1] = test system: Ba/F3 cells where c-mpl was not introduced; experiment: Cell proliferation test with Ba/F3 cells where c-mpl was not introduced (counter-test); format: cell-based
Human c-mpl-Ba/F3 cells = experiment: Cell proliferation test for human c-mpl-Ba/F3 cells (WST-1/1-methoxy PMS absorbance); conditions: based on the maximum cell proliferation activity of rhTPO being 100%
Procedure: Test Example 1 Cell Proliferation Test for Human c-mpl-Ba/F3 Cells
Human c-mpl-Ba/F3 cells at a concentration of 2 x 10^5 cells/mL were cultured at 37 degree C on a 96 well microplate using RPMI 1640 culture medium (100 microliter/ well) containing 10% fetal calf serum to which various concentrations of the test compound was added. After 24 hours from the start of culturing, 10 microliter/well of WST-1/1-methoxy PMS (cell measuring kit, Dojin) was added. Immediately after the addition and two hours later, the A450/A650 absorbance was measured using a microplate reader (Model 3350, Bio-Rad), and the increase in absorbance after 2 hours was interpreted to represent the proliferation activity of each test compound.

O=C(Nc1nc(-c2cc(Cl)cs2)c(N2CCN(C3CCCCC3)CC2)s1)c1cnc(N2CCC(C(=O)O)CC2)c(Cl)c1 [Compound X hydrochloride, reference compound]
Cell proliferation activity (%) (human c-mpl-Ba/F3 cell; 10% blood plasma concentration): 34%

O=C(Nc1nc(-c2cc(Cl)cs2)c(N2CCN(C3CCCCC3)CC2)s1)c1cnc(N2CCC(C(=O)O)CC2)c(Cl)c1 [listing 1 of 2 here]
oral absorption (human c-mpl-Ba/F3 cell): excellent oral absorption

O=C(Nc1nc(-c2cc(Cl)cs2)c(N2CCN(C3CCCCC3)CC2)s1)c1cnc(N2CCC(C(=O)O)CC2)c(Cl)c1 [listing 2 of 2 here]
cell proliferation effect [1]: a cell proliferation effect was not observed | Emax (Human c-mpl-Ba/F3 cells): 102%

O=C(Nc1nc(-c2cc(Cl)cs2)c(N2CCN(C3CCCCC3)CC2)s1)c1cnc(N2CCC(C(=O)O)CC2)c(Cl)c1.O=C(O)/C=C\C(=O)O [1-(3-chloro-5-{ [4-(4-chlorothiophen-2-yl)-5-(4-cyclohexylpiperazin-1-yl)thiazol-2-yl]carbamoyl}pyridin-2-yl) piperidine-4-carboxylic acid maleic acid salt]
Cell proliferation activity (%) (human c-mpl-Ba/F3 cell; 0.3% blood plasma concentration): < 10% | oral absorption (human c-mpl-Ba/F3 cell; listed as compound X maleic acid B type crystals, 3 mg/kg): inferior oral absorption

O=C(Nc1nc(-c2cc(Cl)cs2)c(N2CCN(C3CCCCC3)CC2)s1)c1cnc(N2CCC(C(=O)O)CC2)c(Cl)c1.O=C(O)/C=C\C(=O)O [1-(3-chloro-5-{[4-(4-chlorothiophen-2-yl)-5-(4-cyclohexylpiperazin-1-yl)thiazol-2-yl]carbamoyl}pyridin-2-yl) piperidine-4-carboxylic acid maleic acid salt]
oral absorption (human c-mpl-Ba/F3 cell; listed as compound X maleic acid salt C type crystal, 3 mg/kg): excellent oral absorption

From patent publication EP3246325A1, “2-ACYLAMINOTHIAZOLE COMPOUND CRYSTALS” (priority 2011, dated 2013)
